Results from publication PMC4454739 (Clinical cancer research : an official journal of the …, 2014).
Read-outs that look alike come from different tables or passages of the source.

Columns and labels:
[1] = format: in vivo, human; settings: for change of exposure (AUC) with dose: temsirolimus 8, 10 and 15 mg/m^2; for AUC(0-inf) / AUC(0-t) / Cmax / Tmax / Vd / half-life / clearance: human, intravenous; for AUC(0-inf) / AUC(0-t) / Cmax / Tmax / Vd / half-life: plasma; for clearance: whole blood
[2] = adults, metastatic prostate cancer; with cixutumumab 6 mg/kg IV; cited from earlier work
[3] = cited from earlier work
[4] = Phase I toxicity, DLT and MTD determination; format: in vivo, human; settings: for recommended pediatric phase II dose: IV once every 7 days
[5] = in vivo; cited from earlier work
[6] = in vivo, 6 mg/kg; cited from earlier work
Cixutumumab = settings: for AUC0–7d / CL / CL (weight-adjusted) / Cmax / Vdss / Vdss (weight-adjusted): median
[7] = all patients, combination with temsirolimus
[8] = cycle 1, IMC-A12 6 mg/kg + temsirolimus 8 mg/m^2 (n=8)
[9] = cycle 1, IMC-A12 6 mg/kg + temsirolimus 10 mg/m^2 (n = 3)
[10] = cycle 1, IMC-A12 6 mg/kg + temsirolimus 15 mg/m^2 (n = 4)

CO[C@H]1C[C@@H]2CC[C@@H](C)[C@@](O)(O2)C(=O)C(=O)N2CCCC[C@H]2C(=O)O[C@H]([C@H](C)C[C@@H]2CC[C@@H](O)[C@H](OC)C2)CC(=O)[C@H](C)/C=C(\C)[C@@H](O)[C@@H](OC)C(=O)[C@H](C)C[C@H](C)/C=C/C=C/C=C/1C [Sirolimus]
change of exposure (AUC) with dose [1]: did not appreciably increase with dose
change of exposure (AUC) with dose ([1]; listed as sirolimus): did not increase significantly with dose

CO[C@H]1C[C@@H]2CC[C@@H](C)[C@@](O)(O2)C(=O)C(=O)N2CCCC[C@H]2C(=O)O[C@H]([C@H](C)C[C@@H]2CC[C@@H](OC(=O)C(C)(CO)CO)[C@H](OC)C2)CC(=O)[C@H](C)/C=C(\C)[C@@H](O)[C@@H](OC)C(=O)[C@H](C)C[C@H](C)/C=C/C=C/C=C/1C [Temsirolimus]
AUC(0-inf) ([1]; 8 mg/m2): 2950 ng·h/mL
AUC(0-t) ([1]; 8 mg/m2): 2020 ng·h/mL
Cmax ([1]; 8 mg/m2): 509 ng/mL
Tmax ([1]; 8 mg/m2): 0.8 h
Vd ([1]; 8 mg/m2): 46.3 L
half-life ([1]; 8 mg/m2): 10.3 h
AUC(0-inf) ([1]; 10 mg/m2): 3650 ng·h/mL
AUC(0-t) ([1]; 10 mg/m2): 2650 ng·h/mL
Cmax ([1]; 10 mg/m2): 606 ng/mL
Tmax ([1]; 10 mg/m2): 0.7 h
Vd ([1]; 10 mg/m2): 50.4 L
half-life ([1]; 10 mg/m2): 10.5 h
AUC(0-inf) ([1]; 15 mg/m2): 3270 ng·h/mL
AUC(0-t) ([1]; 15 mg/m2): 2780 ng·h/mL
Cmax ([1]; 15 mg/m2): 660 ng/mL
Tmax ([1]; 15 mg/m2): 0.6 h
Vd ([1]; 15 mg/m2): 74.9 L
half-life ([1]; 15 mg/m2): 10.3 h
clearance ([1]; 8 mg/m2): 38.3 mL/min
clearance ([1]; 10 mg/m2): 91.7 mL/min
clearance ([1]; 15 mg/m2): 112 mL/min
change of exposure (AUC) with dose [1]: did not increase significantly with dose
MTD of temsirolimus in the combination, flat dose [2]: 20 mg
MTD of temsirolimus in the combination, per body surface [2]: 11 mg/m^2
clearance from whole blood, mean ([3]; after a 25-mg dose): 20 L/h
steady-state volume of distribution (Vss) ([3]; after a 25-mg dose): 230 L
clearance from whole blood, mean ([3]; after a 250-mg dose): 100 L/h
steady-state volume of distribution (Vss) ([3]; after a 250-mg dose): 900 L
MTD ([4]; temsirolimus combined with cixutumumab 6 mg/kg, children): 8 mg/m^2
recommended pediatric phase II dose ([4]; temsirolimus in combination with cixutumumab): 8 mg/m^2

Cixutumumab: fully recombinant IgG1 monoclonal antibody that specifically targets the human IGF-IR1
recommended phase II dose, single agent [5]: 9 mg/kg
half-life [6]: 209 h
steady-state trough concentration [6]: 145 mg/mL
median half-life (Cixutumumab; [7]): 122 h
median weight-adjusted clearance (Cixutumumab; [7]): 4.08 mL/day/kg
half-life (Cixutumumab; at 6 mg/kg, children): 122 h
steady-state trough concentration (Cixutumumab; at 6 mg/kg, children): 197 mg/mL
median serum trough concentration (Ctrough) (Cixutumumab; day 28 following a 6 mg/kg dose): approximately 200 μg/ml
AUC0–7d (Cixutumumab; [8]): 20.6 ng·h/mL
CL (Cixutumumab; [8]): 8.3 mL/h
CL (weight-adjusted) (Cixutumumab; [8]): 4.56 mL/day/kg
Cmax (Cixutumumab; [8]): 281000 ng/mL
Vdss (Cixutumumab; [8]): 1050 mL
Vdss (weight-adjusted) (Cixutumumab; [8]): 0.0258 L/kg
AUC0–7d (Cixutumumab; [9]): 25.6 ng·h/mL
CL (Cixutumumab; [9]): 9.9 mL/h
CL (weight-adjusted) (Cixutumumab; [9]): 4.08 mL/day/kg
Cmax (Cixutumumab; [9]): 277000 ng/mL
Vdss (Cixutumumab; [9]): 1750 mL
Vdss (weight-adjusted) (Cixutumumab; [9]): 0.0227 L/kg
AUC0–7d (Cixutumumab; [10]): 26.4 ng·h/mL
CL (Cixutumumab; [10]): 7.0 mL/h
CL (weight-adjusted) (Cixutumumab; [10]): 3.12 mL/day/kg
Cmax (Cixutumumab; [10]): 230000 ng/mL
Vdss (Cixutumumab; [10]): 1860 mL
Vdss (weight-adjusted) (Cixutumumab; [10]): 0.0311 L/kg
change in cixutumumab clearance as the temsirolimus dose was increased (Cixutumumab; temsirolimus 8 to 15 mg/m^2): no changes
recommended pediatric phase II dose ([4]; cixutumumab in combination with temsirolimus): 6 mg/kg
